# Data reported in the supplement of paper PMC10307832.
# Assays:
# Experiment in all cases: relative viability (nuclei count vs DMSO), 5 days (fraction); higher = more cells survive
# AT-7519 + Trametinib = compound: O=C(NC1CCNCC1)c1n[nH]cc1NC(=O)c1c(Cl)cccc1Cl [AT-7519] + CC(=O)Nc1cccc(-n2c(=O)n(C3CC3)c(=O)c3c(Nc4ccc(I)cc4F)n(C)c(=O)c(C)c32)c1 [Trametinib] (partner 0.02 µM)
# Procedure, shortened: (§1)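 One day after seeding in 1536-well plates, lung cancer cell lines were dosed by pin tool. Dosing was either single-drug or a fixed anchor-drug dose plus five library-drug doses (not always all listed) in √10 steps. After 5 days, nuclei were stained in one fix-and-stain step and counted on 4× images, and relative viability is the nuclei count of treated wells over that of vehicle wells, given as the median of duplicate plates.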
# AT-7519 + Pictilisib = compound: O=C(NC1CCNCC1)c1n[nH]cc1NC(=O)c1c(Cl)cccc1Cl [AT-7519] + CS(=O)(=O)N1CCN(Cc2cc3nc(-c4cccc5[nH]ncc45)nc(N4CCOCC4)c3s2)CC1 [Pictilisib] (partner 1 µM)
# Procedure, shortened: as §1
# [1] = compound: C1=CC2=C(C=C(C(=C2N=C1)O)N=NC3=CC4=C(C=C3)C=C(C=C4)S(=O)(=O)O)S(=O)(=O)O + Cc1nc(Nc2ncc(C(=O)Nc3c(C)cccc3Cl)s2)cc(N2CCN(CCO)CC2)n1 [Dasatinib] (partner 0.075 µM)
# Procedure, shortened: as §1
# AT-7519 + Foretinib = compound: O=C(NC1CCNCC1)c1n[nH]cc1NC(=O)c1c(Cl)cccc1Cl [AT-7519] + COc1cc2c(Oc3ccc(NC(=O)C4(C(=O)Nc5ccc(F)cc5)CC4)cc3F)ccnc2cc1OCCCN1CCOCC1 [Foretinib] (partner 0.25 µM)
# Procedure, shortened: as §1
Cell Line,relative viability (AT-7519 + Trametinib; first compound 0.01 µM),relative viability (AT-7519 + Trametinib; first compound 0.03162 µM),relative viability (AT-7519 + Trametinib; first compound 0.3162 µM),relative viability (AT-7519 + Trametinib; first compound 1 µM),relative viability (AT-7519 + Pictilisib; first compound 0.01 µM),relative viability (AT-7519 + Pictilisib; first compound 0.03162 µM),relative viability (AT-7519 + Pictilisib; first compound 0.3162 µM),relative viability (AT-7519 + Pictilisib; first compound 1 µM),relative viability ([1]; first compound 0.08 µM),relative viability ([1]; first compound 0.253 µM),relative viability ([1]; first compound 0.8 µM),relative viability ([1]; first compound 2.53 µM),relative viability ([1]; first compound 8 µM),relative viability (AT-7519 + Foretinib; first compound 0.01 µM),relative viability (AT-7519 + Foretinib; first compound 0.03162 µM),relative viability (AT-7519 + Foretinib; first compound 0.3162 µM),relative viability (AT-7519 + Foretinib; first compound 1 µM)
HCC-44,1.1,1.04,1.06,0.716,0.588,0.625,0.552,0.688,,,,,,,,,
HCC-827,0.488,0.519,0.542,0.28,1.15,0.875,0.819,0.9,0.306,0.294,0.244,0.261,0.272,1.03,0.991,1.03,0.964
NCI-H1623,,,,,,,,,0.465,0.519,0.575,0.547,0.251,0.86,0.834,0.997,0.711
NCI-H2347,0.263,0.256,0.274,0.254,0.565,0.665,0.345,0.286,0.317,0.316,0.333,0.343,0.247,0.738,0.902,0.8,0.819
PC-14,0.681,0.771,0.545,0.0618,0.66,0.59,0.521,0.258,0.257,0.288,0.296,0.31,0.281,0.889,0.856,0.928,0.915
NCI-H1651,0.765,0.781,0.871,0.828,0.59,0.478,0.397,0.41,0.451,0.3,0.416,0.406,0.466,0.855,0.786,0.803,0.683
HARA,0.805,0.551,0.796,0.313,0.361,0.354,0.554,0.279,0.284,0.274,0.274,0.296,0.327,1.07,0.638,0.906,0.591
NCI-H1650,0.634,0.538,0.449,0.223,0.701,0.548,0.295,0.177,0.34,0.315,0.338,0.332,0.227,1.15,1.12,0.914,0.295
NCI-H1395,1.16,1.04,0.799,0.499,0.662,0.523,0.51,0.471,0.386,0.433,0.45,0.397,0.43,0.991,1.12,0.961,0.786
LU99A,0.67,0.53,0.52,0.24,0.365,0.307,0.283,0.251,0.496,0.496,0.474,0.555,0.514,0.873,0.771,0.801,0.556
